Experimental data from patent US11865129B2, “Application of anemoside B4 in preparation of a drug for treatment or prevention of psoriasis” (GUANGXI XINHAI PHARMACEUTICAL TECHNOLOGY CO., LTD., priority 2021, dated 2024).

Tests used:
IL-6 [1] = test: IL-6 level in skin tissue, psoriasis model mice; type: in vivo, BALB/c male mice; settings: 12 days, compared with model control group
Method: (§1) A shaving area on the back of the mice in each group is 2.5 cm×3 cm, and the vellus is removed with mild depilatory cream. The mice of each group except the blank control group are modeled by administrating 62.5 mg 5% imiquimod cream on the shaving area until the skin is thickened and has erythema and silver scales for modeling completely. During the model establishment, 5% imiquimod cream is administrated once a day, and continuously administrated for 14 days. On the third day, the model establishment is continued and drugs are administered at the same time, wherein the mice in the AC intragastric administration group (8 mg/kg), the anemoside B4 intragastric (i.g.) administration group (5 mg/kg), the anemoside B4 intragastric administration group (10 mg/kg), and the anemoside B4 intragastric administration group (20 mg/kg) are administrated once a day, and continuously administrated for 12 days. […] The mice in the blank control group and the model control group are applied 62.5 mg Vaseline to the skin lesions once a day, and continuously applied for 12 days. The weight of the mice is recorded for counting the weight change of the mice. 100 mg skin tissue of the mice in each group of the first animal group are precisely weighed, added 0.9 mL ice normal saline, homogenized with the tissue grinder, and centrifuged at 4° C. and 3000 rpm for 10 min. The supernatant is collected, and IL-12, IL-17, IL-6 and IL-1β level in the skin tissue are measured by kits according to the procedures of specification.

IL-17 [2] = test: IL-17 level in skin tissue, psoriasis model mice; type: in vivo, BALB/c male mice; settings: 12 days, compared with model control group
Method: as §1

M-CSF = M-CSF level in serum by ELISA, psoriasis model rats; type: in vivo, SD male rats; settings: 7 days, vs model control group
Method: (§2) 60 SPF-grade SD male rats in the second animal group are divided into 6 groups: a blank control group, a model control group, an anemoside B4 intragastric administration group (5 mg/kg), an anemoside B4 intragastric administration group (10 mg/kg), an anemoside B4 intragastric administration group (20 mg/kg), and an acitretin intragastric administration group (5 mg/kg), and are respectively expressed into the blank control group, the model group, anemoside B4 5 mg/kg, anemoside B4 10 mg/kg, anemoside B4 20 mg/kg, and acitretin 5 mg/kg in FIGS. 3, 4 and 5 for convenience. A shaving area on the back of the rats in each group is 2.5 cm×3 cm, and the vellus is removed with mild depilatory cream. The rats of each group except the blank control group are modeled by administrating 62.5 mg 5% imiquimod cream on the shaving area until the skin is thickened and has erythema and silver scales for modeling completely.
(§3) 5% imiquimod cream is administrated once a day, and continuously administrated for 8 days for model establishment. On the second day, the rats in each group are continuously intragastric (i.g.) administered drugs for 7 days.
(§4) After administration, blood is taken from abdominal aorta of the rats in each group of the second animal group, centrifuged to collect the serum, and measured the M-CSF, VEGF, IL-6 and IL-17 level in the serum by ELISA kits according to the procedures of specification.

[3] = test system: T lymphocyte subsets of CD4+, CD3+, CD4+/CD8+; test: T lymphocyte subsets by flow cytometry, psoriasis model rats; type: in vivo, SD male rats; settings: 7 days, vs model control group
Method: as §2, §3
After administration, blood is taken from abdominal aorta of the rats in each group of the second animal group, added erythrocyte lysis buffer, centrifuged to collect T lymphocytes, incubated CD4, CD3 and CD8 antibodies in 4° C., washed with a buffer, centrifuged to collect cells, and is subjected to flow cytometry to measure the ratio of the T lymphocyte subsets.

IL-6 [4] = test: IL-6 level in serum by ELISA, psoriasis model rats; type: in vivo, SD male rats; settings: 7 days, vs model control group
Method: as §2, §3, §4

IL-17 [5] = test: IL-17 level in serum by ELISA, psoriasis model rats; type: in vivo, SD male rats; settings: 7 days, vs model control group
Method: as §2, §3, §4

[6] = test system: 5% imiquimod-induced psoriatic lesions; test: Psoriatic lesions and PASI, 5% imiquimod-induced psoriasis model in mice (first animal group); type: in vivo, BALB/c male mice; settings: for skin lesions of the mice: 12 days
Method: as §1, with “mice.” for “mice. 100 mg skin tissue of the mice in each group of the first animal group are precisely weighed, added 0.9 mL ice normal saline, homogenized with the tissue grinder, and centrifuged at 4° C. and 3000 rpm for 10 min. The supernatant is collected, and IL-12, IL-17, IL-6 and IL-1β level in the skin tissue are measured by kits according to the procedures of specification.”

IL-1β = IL-1β level in skin tissue, psoriasis model mice; type: in vivo, BALB/c male mice; settings: 12 days, compared with model control group
Method: as §1

IL-12 = IL-12 level in skin tissue, psoriasis model mice; type: in vivo, BALB/c male mice; settings: 12 days, compared with model control group
Method: as §1

[7] = intragastric 5 mg/kg once a day
[8] = intragastric 10 mg/kg once a day
[9] = intragastric 20 mg/kg once a day

C=C(C)[C@@H]1CC[C@]2(C(=O)O[C@@H]3O[C@H](CO[C@@H]4O[C@H](CO)[C@@H](O[C@@H]5O[C@@H](C)[C@H](O)[C@@H](O)[C@H]5O)[C@H](O)[C@H]4O)[C@@H](O)[C@H](O)[C@H]3O)CC[C@]3(C)[C@H](CC[C@@H]4[C@@]5(C)CC[C@H](O[C@@H]6OC[C@H](O)[C@H](O)[C@H]6O[C@@H]6O[C@@H](C)[C@H](O)[C@@H](O)[C@H]6O)[C@@](C)(CO)[C@@H]5CC[C@]43C)[C@H]12 [anemoside B4]
significantly decreased: M-CSF level in serum (M-CSF; intragastric 5 mg/kg) | M-CSF level in serum (M-CSF; intragastric 10 mg/kg) | M-CSF level in serum (M-CSF; intragastric 20 mg/kg) | IL-6 level in serum (IL-6 [4]; intragastric 5 mg/kg) | IL-6 level in serum (IL-6 [4]; intragastric 10 mg/kg) | IL-6 level in serum (IL-6 [4]; intragastric 20 mg/kg) | IL-17 level in serum (IL-17 [5]; intragastric 5 mg/kg) | IL-17 level in serum (IL-17 [5]; intragastric 10 mg/kg) | IL-17 level in serum (IL-17 [5]; intragastric 20 mg/kg)
significantly improved: skin lesions of the mice [6, 7] | skin lesions of the mice [6, 8] | skin lesions of the mice [6, 9]
significantly increased: ratio of CD3+ in serum ([3]; intragastric 5 mg/kg) | ratio of CD4+ in serum ([3]; intragastric 5 mg/kg) | ratio of CD4+/CD8+ in serum ([3]; intragastric 5 mg/kg) | ratio of CD3+ in serum ([3]; intragastric 10 mg/kg) | ratio of CD4+ in serum ([3]; intragastric 10 mg/kg) | ratio of CD4+/CD8+ in serum ([3]; intragastric 10 mg/kg) | ratio of CD3+ in serum ([3]; intragastric 20 mg/kg) | ratio of CD4+ in serum ([3]; intragastric 20 mg/kg) | ratio of CD4+/CD8+ in serum ([3]; intragastric 20 mg/kg)
significantly reduced: level of IL-6 in the skin tissue (IL-6 [1]; [7]) | level of IL-6 in the skin tissue (IL-6 [1]; [8]) | level of IL-6 in the skin tissue (IL-6 [1]; [9]) | level of IL-17 in the skin tissue (IL-17 [2]; [7]) | level of IL-17 in the skin tissue (IL-17 [2]; [8]) | level of IL-17 in the skin tissue (IL-17 [2]; [9]) | level of IL-1β in the skin tissue (IL-1β; [7]) | level of IL-1β in the skin tissue (IL-1β; [8]) | level of IL-1β in the skin tissue (IL-1β; [9]) | level of IL-12 in the skin tissue (IL-12; [7]) | level of IL-12 in the skin tissue (IL-12; [8]) | level of IL-12 in the skin tissue (IL-12; [9])
better: improvement of the skin lesions, compared with the acitretin capsules (AC) intragastric administration group ([6]; anemoside B4 groups, doses not specified)
